# Reference: US8138183B2, “Morpholino pyrimidine derivatives used in diseases linked to mTOR kinase and/or PI3K” (AstraZeneca AB, priority 2007, dated 2012)
# Read-outs that look alike come from different tables or passages of the source.
# Columns and labels:
# recombinant mTOR = recombinant mTOR (Homo sapiens, UniProt P42345); experiment: In Vitro mTOR Kinase Assay (Echo), Test (a)(ii) (AlphaScreen); assay type: biochemical; conditions: Echo acoustic dispensing
# Protocol: (a)(ii) In Vitro mTOR Kinase Assay (Echo)
# The assay used AlphaScreen technology (Gray et al., Analytical Biochemistry, 2003, 313: 234-245) to determine the ability of test compounds to inhibit phosphorylation by recombinant mTOR.
# The HEK293 FLAG-tagged mTOR (1362-2549) stable cell line was routinely maintained at 37° C. with 5% CO2 up to a confluency of 70-90% in Dulbecco's modified Eagle's growth medium (DMEM; Invitrogen Limited, Paisley, UK Catalogue No. 41966-029) containing 10% heat-inactivated foetal calf serum (FCS; Sigma, Poole, Dorset, UK, Catalogue No. F0392), 1% L-glutamine (Gibco, Catalogue No. 25030-024) and 2 mg/ml Geneticin (G418 sulfate; Invitrogen Limited, UK Catalogue No. 10131-027). Following expression in the mammalian HEK293 cell line, expressed protein was purified using the FLAG epitope tag using standard purification techniques.
# Aliquots ([…]) of each compound dilution were acoustically […] using a Labcyte Echo 550 into a well of a Greiner 384-well low volume (LV) white polystyrene plate (Greiner Bio-one). A […] mixture of recombinant purified mTOR enzyme, 1 μM biotinylated peptide substrate (Biotin-Ahx-[…]NH2; Bachem UK Ltd), ATP (20 μM) and a buffer solution [comprising Tris-HCl pH7.4 buffer (50 mM), EGTA (0.1 mM), bovine serum albumin (0.5 mg/mL), DTT (1.25 mM) and manganese chloride (10 mM)] was incubated at room temperature for […].
# These assay solutions were incubated for 2 hours at room temperature.
# Each reaction was stopped by the addition of […] of a mixture of EDTA (50 mM), bovine serum albumin (BSA; 0.5 mg/mL) and Tris-HCl pH7.4 buffer (50 mM) containing
# p70 S6 Kinase (T389) 1A5 Monoclonal Antibody (Cell Signalling Technology, Catalogue No. 9206B) and AlphaScreen Streptavidin donor and Protein A acceptor beads (200 ng; Perkin Elmer, Catalogue No. 6760002B and 6760137R respectively) were added and the assay plates were left overnight at room temperature in the dark. The resultant signals arising from laser light excitation at 680 nm were read using a Packard Envision instrument.
# The phosphorylated biotinylated peptide that is associated with AlphaScreen Streptavidin donor beads forms a complex with the p70 S6 Kinase (T389) 1A5 Monoclonal Antibody that is associated with Alphascreen Protein A acceptor beads. Upon laser light excitation at 680 nm, the donor bead : acceptor bead complex produces a signal that can be measured. Accordingly, the presence of mTOR kinase activity results in an assay signal. In the presence of an mTOR kinase inhibitor, signal strength is reduced. mTOR enzyme inhibition for a given test compound was expressed as an IC50 value.
# [1] = system: phosphorylation of Serine 473 in Akt; experiment: In Vitro phospho-Ser473 Akt Assay, Test (c); assay type: cell-based; conditions: MDA-MB-468 human breast adenocarcinoma cells, measured on two occasions, read-out: IC50 versus Serine 473 in Akt
# Protocol: (c) In Vitro phospho-Ser473 Akt Assay
# This assay determines the ability of test compounds to inhibit phosphorylation of Serine 473 in Akt as assessed using Acumen Explorer technology (Acumen Bioscience Limited), a plate reader that can be used to rapidly quantitate features of images generated by laser-scanning.
# A MDA-MB-468 human breast adenocarcinoma cell line (LGC Promochem, Teddington, Middlesex, UK, Catalogue No. HTB-132) was routinely maintained at 37° C. with 5% CO2 up to a confluency of 70-90% in DMEM containing 10% heat-inactivated FCS and 1% L-glutamine.
# For the assay, the cells were detached from the culture flask using ‘Accutase’ (Innovative Cell Technologies Inc., San Diego, Calif., USA; Catalogue No. AT104) using standard tissue culture methods and resuspended in media to give 1.7×10^5 cells per mL. […]
# All subsequent aspiration and wash steps were carried out using a Tecan 96 well plate washer (aspiration speed 10 mm/sec). […] An aliquot of PBS (50 μl) was added to each well and the plates were sealed with black plate sealers and the fluorescence signal was detected and analysed.
# Fluorescence dose response data obtained with each compound were analysed and the degree of inhibition of Serine 473 in Akt was expressed as an IC50 value.
# Sequence of recombinant mTOR (P42345 1362-2549): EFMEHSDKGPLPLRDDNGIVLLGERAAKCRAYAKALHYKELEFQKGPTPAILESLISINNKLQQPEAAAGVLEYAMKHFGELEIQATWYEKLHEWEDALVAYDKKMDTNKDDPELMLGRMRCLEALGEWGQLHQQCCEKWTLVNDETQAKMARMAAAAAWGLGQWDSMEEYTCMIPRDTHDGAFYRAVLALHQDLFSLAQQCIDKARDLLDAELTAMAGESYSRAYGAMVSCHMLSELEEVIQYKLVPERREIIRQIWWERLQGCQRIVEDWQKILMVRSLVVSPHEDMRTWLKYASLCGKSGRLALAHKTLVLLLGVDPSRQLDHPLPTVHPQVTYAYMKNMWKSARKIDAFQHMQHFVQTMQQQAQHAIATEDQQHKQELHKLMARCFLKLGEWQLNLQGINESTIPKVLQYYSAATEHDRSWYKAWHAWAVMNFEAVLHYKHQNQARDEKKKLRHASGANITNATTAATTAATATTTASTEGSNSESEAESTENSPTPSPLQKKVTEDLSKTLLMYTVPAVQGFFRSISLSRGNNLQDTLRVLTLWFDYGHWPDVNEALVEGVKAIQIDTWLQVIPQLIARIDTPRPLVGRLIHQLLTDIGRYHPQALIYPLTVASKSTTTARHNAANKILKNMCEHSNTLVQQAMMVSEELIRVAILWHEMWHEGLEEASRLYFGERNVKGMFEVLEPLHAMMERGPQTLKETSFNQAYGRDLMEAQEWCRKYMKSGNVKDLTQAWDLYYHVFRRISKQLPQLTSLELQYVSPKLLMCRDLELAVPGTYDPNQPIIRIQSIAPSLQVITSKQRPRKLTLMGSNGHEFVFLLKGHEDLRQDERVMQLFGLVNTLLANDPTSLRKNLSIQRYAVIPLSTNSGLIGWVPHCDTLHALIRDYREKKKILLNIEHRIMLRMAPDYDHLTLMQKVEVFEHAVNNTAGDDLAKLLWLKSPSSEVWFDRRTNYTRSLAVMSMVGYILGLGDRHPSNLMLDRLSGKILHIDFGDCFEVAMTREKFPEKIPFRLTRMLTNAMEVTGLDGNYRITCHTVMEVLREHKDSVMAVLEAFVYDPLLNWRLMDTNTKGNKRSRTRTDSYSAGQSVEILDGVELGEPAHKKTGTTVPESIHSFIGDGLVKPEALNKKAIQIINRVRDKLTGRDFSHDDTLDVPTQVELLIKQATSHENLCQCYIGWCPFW
compound,measurement,setting,value
"C[C@H]1COCCN1c1cc(CS(C)(=O)=O)nc(-c2ccc(NC(=S)Nc3ccccc3)cc2)n1 [Example 1b, 1-[4-[4-[(3S)-3-methylmorpholin-4-yl]-6-(methylsulfonylmethyl)pyrimidin-2-yl]phenyl]-3-phenyl-thiourea]",IC50,recombinant mTOR,0.0816 µM
same,IC50,"[1]; Homo sapiens, MDA-MB-468, Test (c)",1.93 µM
same,IC50,[1]; Test (c),1.74 µM
